Source: US7727986B2, “Pesticide pyrimidinyloxy substituted phenylamidine derivatives” (Bayer CropScience AG, priority 2005, dated 2010)

System: Phaedon cochleariae
Assay: In vivo protective test on Phaedon cochleariae (PHAECO)
Conditions: Chinese cabbage leaf-disks sprayed, infested with mustard beetle larvae; concentration not given
Procedure: In vivo Protective Test on Phaedon cochleariae (PHAECO)
(§1) To produce a suitable preparation of active compound, 1 part by weight of active compound is mixed with the stated amount of solvent and emulsifier, and the concentrate is diluted with emulsifier-containing water to the desired concentration.
Chinese cabbage (Brassica pekinesis) leaf-disks are sprayed with a preparation of the active ingredient of the desired concentration. Once dry, the leaf disks are infested with mustard beetle larvae (Phaedon cochleariae).
After the specified period of time, mortality in % is determined. 100% means that all beetle larvae have been killed and 0% means that none of the beetle larvae have been killed.
For `CCCN(C)C=Nc1cc(C)c(Oc2ccnc(Oc3cccc(Cl)c3C)n2)cc1C` [Compound 18], the “activity (mortality)” value was “good activity”.

System: Tetranychus urticae
Assay: In vivo protective test on Tetranychus urticae (TETRUR)
Conditions: French bean infested with two spotted spidermite, sprayed; concentration not given
Procedure: In vivo Protective Test on Tetranychus urticae (TETRUR)
as §1
French bean (Phaseolus vulgaris) which are heavily infested with all stages of the two spotted spidermite (Tetranychus urticae), are sprayed with a preparation of the active ingredient at the desired concentration.
After the specified period of time, mortality in % is determined. 100% means that all spider mites have been killed and 0% means that none of the spider mites have been killed.
In the case of `CCN(C)C=Nc1cc(C)c(Oc2ccnc(N(C)C)n2)cc1C` [Compound 37], the “activity (mortality)” value is reported as “good activity”.

System: Myzus persicae
Assay: In vivo protective test on Myzus persicae (MYZUPE)
Conditions: Chinese cabbage leaf-disks infected with green peach aphid, sprayed; concentration not given
Procedure: In vivo Protective Test on Myzus persicae (MYZUPE)
as §1
Chinese cabbage (Brassica pekinesis) leaf-disks infected with all instars of the green peach aphid (Myzus persicae), are sprayed with a preparation of the active ingredient at the desired concentration.
After the specified period of time, mortality in % is determined. 100% means that all aphids have been killed; 0% means that none of the aphids have been killed.
With `CCN(C)C=Nc1cc(C)c(Oc2ccnc(Oc3cccc(Cl)c3)n2)cc1C` [Compound 65] the “activity (mortality)” value was “good activity”. In the case of `Cc1cc(Oc2cc(C)c(N=CN(C)C(C)C)cc2C)nc(Cl)n1` [Compound 41], the “activity (mortality)” value is reported as “good activity”. With `CCCN(C)C=Nc1cc(C)c(Oc2ccnc(Oc3ccccc3)n2)cc1C` [Compound 36] the “activity (mortality)” value was “good activity”.

System: not listed separately
Assay: logP by HPLC on reversed-phase column (C 18), EEC Directive 79/831 Annex V.A8
Assay type: physicochemical
Conditions: HPLC, 0.1% aqueous formic acid and acetonitrile, 40° C.; pH 2.3
Procedure: Temperature: 40° C.; Mobile phases: 0.1% aqueous formic acid and acetonitrile; linear gradient from 10% acetonitrile to 90% acetonitrile.
With `CCN(C)C=Nc1cc(C)c(Oc2ccnc(N(C)C)n2)cc1C` [Compound 37] the logPa was 0.66. `CCCN(C)C=Nc1cc(C)c(Oc2ccnc(Oc3cccc(Cl)c3C)n2)cc1C` [Compound 18] showed a logPa of 2.21. Work on `CCN(C)C=Nc1cc(C)c(Oc2ccnc(Oc3cccc(Cl)c3)n2)cc1C` [Compound 65] yielded a logPa of 2.04. In the case of `Cc1cc(Oc2ccnc(N3CCOCC3)n2)c(C)cc1N=CN(C)C(C)C` [Compound 33], the logPa is reported as 1.46. For `Cc1cccc(Oc2nccc(Oc3cc(C)c(N=CN4CCCCC4)cc3C)n2)c1` [Compound 80], the logPa was 2.16. `Cc1cc(Oc2cc(C)c(N=CN(C)C(C)C)cc2C)nc(Cl)n1` [Compound 41] showed a logPa of 1.57. In the case of `Cc1cc(Oc2cc(Cl)nc(C(C)(C)C)n2)c(C)cc1N=CN(C)C(C)C` [Compound 60], the logPa is reported as 2.8. Work on `CCN(C)C=Nc1cc(C)c(Oc2ccnc(Oc3ccc(OC)c(OC)c3)n2)cc1C` [Compound 71] yielded a logPa of 1.65. For `CCCN(C)C=Nc1cc(C)c(Oc2ccnc(Nc3cccc(Cl)c3)n2)cc1C` [Compound 52], the logPa was 2.06. Work on `CCN(C)C=Nc1cc(C)c(Oc2ccnc(Oc3cccc(C)c3)n2)cc1C` [Compound 79] yielded a logPa of 2.02. `Cc1cc(Oc2ccnc(N3C=NCC3)n2)c(C)cc1N=CN(C)C(C)C` [Compound 31] gave a logPa of 1.01. Work on `CCCN(C)C=Nc1cc(C)c(Oc2ncc(Cl)cn2)cc1C` [Compound 96] yielded a logPa of 1.48. In the case of `CCN(C)C=Nc1cc(C)c(Oc2ccnc(OC)n2)cc1C` [Compound 11], the logPa is reported as 1.16. For `CCN(C)C=Nc1cc(C)c(Oc2nc(Cl)ncc2C)cc1C` [Compound 27], the logPa was 1.42. In the case of `CCN(C)C=Nc1cc(C)c(Oc2ccnc(N(C)c3ccccc3)n2)cc1C` [Compound 1, N′-{2,5-dimethyl-4-[2-(methyl-phenyl-amino)-pyrimidin-4-yloxy]-phenyl}-N-ethyl-N-methyl-formamidine], the logPa is reported as 1.61. Work on `CCCN(C)C=Nc1cc(C)c(Oc2ccnc(OCC)n2)cc1C` [Compound 50] yielded a logPa of 1.55. In the case of `CCc1ncnc(Oc2cc(C)c(N=CN3CCCC3)cc2C)c1Cl` [Compound 86], the logPa is reported as 1.87. `CCCN(C)C=Nc1cc(C)c(Oc2ccnc(OC)n2)cc1C` [Compound 12] showed a logPa of 1.38. Compound `CCN(C)C=Nc1cc(C)c(Oc2ccnc(Oc3ccccc3)n2)cc1C` [Compound 35] has a logPa of 1.68. Compound `CCN(C)C=Nc1cc(C)c(Oc2ccnc(Oc3ccc(Cl)cc3)n2)cc1C` [Compound 81] has a logPa of 2.11. In the case of `Cc1cc(Oc2ccnc(Oc3ccc(C(C)(C)C)cc3)n2)c(C)cc1N=CN1CCCCC1` [Compound 78], the logPa is reported as 2.75. `CCN(C)C=Nc1cc(C)c(Oc2ccnc(N(C)CC)n2)cc1C` [Compound 10] showed a logPa of 0.82. `CCCN(C)C=Nc1cc(C)c(Oc2ccnc(N3CCCCC3)n2)cc1C` [Compound 22] showed a logPa of 1.58. `CCOc1nccc(Oc2cc(C)c(N=CN(C)CC)cc2C)n1` [Compound 47] gave a logPa of 1.47. Work on `CCCN(C)c1cc(Oc2cc(C)c(N=CN(C)CC)cc2C)ncn1` [Compound 49] yielded a logPa of 1.74. `Cc1cc(Oc2ccnc(Oc3ccc(C(F)(F)F)cc3)n2)c(C)cc1N=CN1CCCCC1` [Compound 88] showed a logPa of 2.49. Work on `CCCN(C)C=Nc1cc(C)c(Oc2cc(OC)ncn2)cc1C` [Compound 40] yielded a logPa of 1.47. `CCN(C)C=Nc1cc(C)c(Oc2cc(Cl)nc(C(C)(C)C)n2)cc1C` [Compound 59] showed a logPa of 2.61. `Cc1cc(Oc2ccnc(Oc3ccccc3)n2)c(C)cc1N=CN1CCCCC1` [Compound 76] gave a logPa of 2.02. `CCCN(C)C=Nc1cc(C)c(Oc2ncnc(CC)c2Cl)cc1C` [Compound 84] showed a logPa of 1.99. In the case of `CCCN(C)C=Nc1cc(C)c(Oc2ccnc(Oc3ccccc3)n2)cc1C` [Compound 36], the logPa is reported as 1.87. `Cc1cc(Oc2ccnc(Oc3ccccc3)n2)c(C)cc1N=CN(C)C(C)C` [Compound 66] showed a logPa of 1.81. With `COc1cc(Oc2cc(C)c(N=CN(C)C(C)C)cc2C)ncn1` [Compound 48] the logPa was 1.49. `CCCN(C)C=Nc1cc(C)c(Oc2ncc(C)c(C)n2)cc1C` [Compound 94] showed a logPa of 1.4. For `CCN(C)C=Nc1cc(C)c(Oc2cc(Cl)nc(Cl)n2)cc1C` [Compound 69], the logPa was 1.67. With `CCc1ncnc(Oc2cc(C)c(N=CN(C)CC)cc2C)c1Cl` [Compound 83] the logPa was 1.91. `CCN(C)C=Nc1cc(C)c(Oc2cc(C)nc(Oc3ccccc3)n2)cc1C` [Compound 73] showed a logPa of 1.99. In the case of `CCN(C)C=Nc1cc(C)c(Oc2ccnc(Oc3cccc(Cl)c3C)n2)cc1C` [Compound 2, N′-{4-[2-(3-chloro-2-methyl-phenoxy)-pyrimidin-4-yloxy]-2,5-dimethyl-phenyl}-N-ethyl-N-methyl-formamidine], the logPa is reported as 2.08. `CCN(C)c1nc(Oc2cc(C)c(N=CN3CCCCC3)cc2C)ncc1Cl` [Compound 101] showed a logPa of 1.93. Compound `CCCN(C)C=Nc1cc(C)c(Oc2nccc(C(F)(F)F)n2)cc1C` [Compound 98] has a logPa of 1.7.

Same assay, conditions: reversed-phase C18 HPLC column; pH 2.3; value in preparation example text; read-out: log P (pH 2.3)
For `CCN(C)C=Nc1cc(C)c(Oc2ccnc(N(C)c3ccccc3)n2)cc1C` [Compound 1, N′-{2,5-dimethyl-4-[2-(methyl-phenyl-amino)-pyrimidin-4-yloxy]-phenyl}-N-ethyl-N-methyl-formamidine], the chromatographic logP was 1.61. In the case of `Cc1cc(Oc2ccnc(N(C)c3ccccc3)n2)c(C)cc1N` [[4-(4-Amino-2,5-dimethyl-phenoxy)-pyrimidin-2-yl]-methyl-phenyl-amine], the chromatographic logP is reported as 1.72. Compound `CCN(C)c1nc(Oc2cc(C)c([N+](=O)[O-])cc2C)ncc1Cl` [5-chloro-2-(2,5-dimethyl-4-nitrophenoxy)-N-ethyl-N-methylpyrimidin-4-amine] has a chromatographic logP of 4.07. In the case of `CCN(C)C=Nc1cc(C)c(Oc2ccnc(Oc3cccc(Cl)c3C)n2)cc1C` [Compound 2, N′-{4-[2-(3-chloro-2-methyl-phenoxy)-pyrimidin-4-yloxy]-2,5-dimethyl-phenyl}-N-ethyl-N-methyl-formamidine], the chromatographic logP is reported as 2.08.
